Experimental data from US20100119599A1 (ARCHER PHARMACEUTICALS, INC., priority 2006, published 2010).

Key:
[1] = test system: Aβ1-42; experiment: Measurement of Aβ1-42 in culture medium of 7W WT APP751 CHO cells by ELISA; format: cell-based, Chinese hamster; settings: for Aβ1-42 (% of control): CHO cells that overexpress APP751, zero = below the detection limit of the assay; for activity at 5 µM: Cricetulus griseus, Table 1, 5 μM test compound, CHO cells stably transfected with human APP751, culture medium, ELISA, control DMSO, 0 = no detectable amount, read-out: Aβ1-42 (% of control)
[2] = test system: Aβ1-40; experiment: Measurement of Aβ1-40 in culture medium of 7W WT APP751 CHO cells by ELISA; format: cell-based, Chinese hamster; settings: for Aβ1-40 (% of control): CHO cells that overexpress APP751, zero = below the detection limit of the assay; for activity at 5 µM: Cricetulus griseus, Table 1, 5 μM test compound, CHO cells stably transfected with human APP751, culture medium, ELISA, control DMSO, 0 = no detectable amount
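Note: 5 µM test compound but RI-coded compounds at 10 µM for 24 hours.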

SMILES | Aβ1-42 (% of control) [1] | Aβ1-40 (% of control) [2] | activity at 5 µM [1] | activity at 5 µM [2]
CC1=C(C(N)=O)C(c2ccccc2)C(C#N)=C(SCC(=O)Nc2cccc(C)c2)N1 (stereo not drawn) [RI_30] | 48.2 % of control | 94.9 % of control | – | –
CCOC(=O)C1=C(C)NC2=C(C(=O)CC(c3ccccc3)C2)C1c1cc(OC)ccc1OC (stereo not drawn) [ST015254, ethyl 4-(2,5-dimethoxyphenyl)-2-methyl-5-oxo-7-phenyl-1,4,6,7,8-pentahydroquinoline-3-carboxylate] | – | – | 33.8% | 46.9%
COCCOC(=O)C1=C(C)NC2=C(C(=O)CCC2)C1c1cc(Br)c(O)c(OC)c1 (stereo not drawn) [ST013357, 2-methoxyethyl 4-(3-bromo-4-hydroxy-5-methoxyphenyl)-2-methyl-5-oxo-1,4,6,7,8-pentahydroquinoline-3-carboxylate] | – | – | 95.2% | 62.4%
COc1ccc(C2C(C(=O)OC3CCCCC3)=C(C)NC3=C2C(=O)CC(C)(C)C3)cc1O (stereo not drawn) [ST052325, cyclohexyl 4-(3-hydroxy-4-methoxyphenyl)-2,7,7-trimethyl-5-oxo-1,4,6,7,8-pentahydroquinoline-3-carboxylate] | – | – | 33% | 41.7%
CCCCCOC(=O)C1=C(C)NC2=C(C(=O)CC(C)(C)C2)C1c1ccc2c(c1)OCO2 (stereo not drawn) [ST216581, pentyl 4-(2H-benzo[3,4-d]1,3-dioxolan-5-yl)-2,7,7-trimethyl-5-oxo-1,4,6,7,8-pentahydroquinoline-3-carboxylate] | – | – | 41.6% | 28.6%
COC(=O)C1=C(C)NC2=C(C(=O)CC(c3ccccc3)C2)C1c1ccc(O)c(OC)c1 (stereo not drawn) [ST013115, methyl 4-(4-hydroxy-3-methoxyphenyl)-2-methyl-5-oxo-7-phenyl-1,4,6,7,8-pentahydroquinoline-3-carboxylate] | – | – | 65.7% | 94.7%
CC1=C(C(=O)OC2CCCC2)C(c2ccccc2Br)C2=C(CC(C)(C)CC2=O)N1 (stereo not drawn) [ST013103, cyclopentyl 4-(2-bromophenyl)-2,7,7-trimethyl-5-oxo-1,4,6,7,8-pentahydroquinoline-3-carboxylate] | – | – | 68.2% | 0%
CC1=C(C(=O)OCCOc2ccccc2)C(c2ccccc2Cl)C2=C(CC(C)(C)CC2=O)N1 (stereo not drawn) [ST015096, 2-phenoxyethyl 4-(2-chlorophenyl)-2,7,7-trimethyl-5-oxo-1,4,6,7,8-pentahydroquinoline-3-carboxylate] | – | – | 80% | 28.1%
CC(=O)Oc1ccc(C2C(C(=O)OC(C)C)=C(C)NC3=C2C(=O)CCC3)cc1 (stereo not drawn) [ST013192, 4-{2-methyl-3-[(methylethyl)oxycarbonyl]-5-oxo-4-1,4,6,7,8-pentahydroquinolyl} phenyl acetate] | – | – | 82.5% | 55.5%
CCOC(=O)C1=CN(c2cc(C)ccc2C)C=C(C(=O)OCC)C1c1ccc(OC)c(OC)c1OC [ST052487, ethyl 1-(2,5-dimethylphenyl)-5-(ethoxycarbonyl)-4-(2,3,4-trimethoxyphenyl)-1,4-dihydropyridine-3-carboxylate] | 15.1 % of control | 11.56 % of control | – | –
CC1=C(C(=O)OCc2ccccc2)C(c2ccc(N(C)C)cc2)C2=C(CCCC2=O)N1 (stereo not drawn) [ST013212, phenylmethyl 4-[4-(dimethylamino)phenyl]-2-methyl-5-oxo-1,4,6,7,8-pentahydroquinoline-3-carboxylate] | – | – | 93.7% | 50.8%
CCc1cccc(NC(=O)CSC2=C(C#N)C(c3cc4ccccc4s3)C(C(=O)Nc3ccccc3)=C(C)N2)c1 (stereo not drawn) [RI_87] | 49 % of control | 77.1 % of control | – | –
CC(=O)C1=C(C)NC(S)=C(C#N)C1c1ccccc1[N+](=O)[O-] (stereo not drawn) [ST011628, 5-acetyl-6-methyl-4-(2-nitrophenyl)-2-sulfanyl-1,4-dihydropyridine-3-carbonitrile] | 76.9 % of control | 74.07 % of control | – | –
CC1=C(C(=O)OCC(C)C)C(c2ccccc2F)C2=C(CC(c3cccs3)CC2=O)N1 (stereo not drawn) [ST051566, 2-methylpropyl 4-(2-fluorophenyl)-2-methyl-5-oxo-7-(2-thienyl)-1,4,6,7,8-pentahydroquinoline-3-carboxylate] | – | – | 96.1% | 63.4%
CC1=C(C(=O)OCCOc2ccccc2)C(c2ccc3c(c2)OCO3)C2=C(CC(C)(C)CC2=O)N1 (stereo not drawn) [ST015103, 2-phenoxyethyl 4-(2H-benzo[3,4-d]1,3-dioxolan-5-yl)-2,7,7-trimethyl-5-oxo-1,4,6,7,8-pentahydroquinoline-3-carboxylate] | – | – | 73.5% | 35.3%
CCCOc1ccccc1C1C(C(=O)OCCOc2ccccc2)=C(C)NC2=C1C(=O)CC(C)(C)C2 (stereo not drawn) [ST015105, 2-phenoxyethyl 2,7,7-trimethyl-5-oxo-4-(2-propoxyphenyl)-1,4,6,7,8-pentahydroquinoline-3-carboxylate] | – | – | 99.8% | 53%
CCOC(=O)C1=CN(c2ccc(F)cc2)C=C(C(=O)OCC)C1c1ccccc1OCC [ST052316, ethyl 5-(ethoxycarbonyl)-4-(2-ethoxyphenyl)-1-(4-fluorophenyl)-1,4-dihydropyridine-3-carboxylate] | 40.03 % of control | 68.09 % of control | – | –

SMILES | Aβ1-42 (% of control) [1] | Aβ1-40 (% of control) [2] | activity at 5 µM [1] | activity at 5 µM [2]
COC(=O)C1=CN(Cc2ccc3c(c2)OCO3)C=C(C(=O)OC)C1c1cccs1 [ST038112, methyl 1-(2H-benzo[3,4-d]1,3-dioxolen-5-ylmethyl)-5-(methoxycarbonyl)-4-(2-thienyl)-1,4-dihydropyridine-3-carboxylate] | 99.52 % of control | 47.7 % of control | – | –
N#CC1=C(N)N2C(=O)C(Cc3ccc(Br)cc3)SC2=C(C#N)C1c1ccc(Br)cc1 (stereo not drawn) [RI_97] | 74.9 % of control | 76.7 % of control | – | –
CC1=C(C(=O)Nc2ccccc2)C(c2cccs2)C(C#N)=C(SCC(=O)NC2CCCCC2)N1 (stereo not drawn) [RI_25] | 36.5 % of control | 55.9 % of control | – | –
COCCOC(=O)C1=C(C)NC2=C(C(=O)CC(c3ccc(OC)cc3)C2)C1c1ccc(Br)cc1 (stereo not drawn) [ST017099, 2-methoxyethyl 4-(4-bromophenyl)-7-(4-methoxyphenyl)-2-methyl-5-oxo-1,4,6,7,8-pentahydroquinoline-3-carboxylate] | – | – | 57% | 84.5%
CC1=C(C(=O)Nc2ccccc2)C(c2cccs2)C(C#N)=C(SCC(=O)Nc2ccccc2F)N1 (stereo not drawn) [RI_12] | 82.5 % of control | 68.4 % of control | – | –
CC(=O)Oc1ccc(C2C(C(=O)OCCOc3ccccc3)=C(C)NC3=C2C(=O)CC(c2ccccc2)C3)cc1 (stereo not drawn) [ST017230, 4-{2-methyl-5-oxo-7-phenyl-3-[(2-phenoxyethyl)oxycarbonyl]-4-1,4,6,7,8-pentahydroquinolyl}phenyl acetate] | – | – | 84.7% | 69.1%
CCCOC(=O)C1=C(C)NC2=C(C(=O)CCC2)C1c1ccc(C)cc1 (stereo not drawn) [ST013247, propyl 2-methyl-4-(4-methylphenyl)-5-oxo-1,4,6,7,8-pentahydroquinoline-3-carboxylate] | – | – | 55% | 35.5%
CCCCCOC(=O)C1=C(C)NC2=C(C(=O)CC(C)(C)C2)C1c1ccc([N+](=O)[O-])cc1 (stereo not drawn) [ST216093, pentyl 2,7,7-trimethyl-4-(4-nitrophenyl)-5-oxo-1,4,6,7,8-pentahydroquinoline-3-carboxylate] | – | – | 0% | 0%
CCCCCOC(=O)C1=C(C)NC2=C(C(=O)CCC2)C1c1cccc(Cl)c1 (stereo not drawn) [ST013152, pentyl 4-(3-chlorophenyl)-2-methyl-5-oxo-1,4,6,7,8-pentahydroquinoline-3-carboxylate] | – | – | 33.2% | 22%
COc1ccccc1C1C(C(=O)OCCc2ccccc2)=C(C)NC2=C1C(=O)CCC2 (stereo not drawn) [ST015110, 2-phenylethyl 4-(2-methoxyphenyl)-2-methyl-5-oxo-1,4,6,7,8-pentahydroquinoline-3-carboxylate] | – | – | 90.1% | 42.8%
CC1=C(C(=O)OCCc2ccccc2)C(c2ccc([N+](=O)[O-])cc2)C2=C(CC(C)(C)CC2=O)N1 (stereo not drawn) [ST014923, 2-phenylethyl 2,7,7-trimethyl-4-(4-nitrophenyl)-5-oxo-1,4,6,7,8-pentahydroquinoline-3-carboxylate] | – | – | 28.4% | 0%
COc1ccc(C2C(C(=O)OC(C)C)=C(C)NC3=C2C(=O)CC(C)(C)C3)cc1Br (stereo not drawn) [ST215449, methylethyl 4-(3-bromo-4-methoxyphenyl)-2,7,7-trimethyl-5-oxo-1,4,6,7,8-pentahydroquinoline-3-carboxylate] | – | – | 25.7% | 24.5%
CC1=C(C(=O)OCCc2ccccc2)C(c2ccc([N+](=O)[O-])cc2)C2=C(CC(c3ccccc3)CC2=O)N1 (stereo not drawn) [ST015255, 2-phenylethyl 2-methyl-4-(4-nitrophenyl)-5-oxo-7-phenyl-1,4,6,7,8-pentahydroquinoline-3-carboxylate] | – | – | 74.7% | 40.5%
CC1=C(C(=O)OCc2ccccc2)C(c2ccc(C(F)(F)F)cc2)C2=C(CCCC2=O)N1 (stereo not drawn) [ST052323, phenylmethyl 2-methyl-5-oxo-4-[4-(trifluoromethyl)phenyl]-1,4,6,7,8-pentahydroquinoline-3-carboxylate] | – | – | 0% | 4.91%
COc1ccc(C2C(C(=O)OCc3ccccc3)=C(C)NC3=C2C(=O)CCC3)cc1OC (stereo not drawn) [ST013138, phenylmethyl 4-(3,4-dimethoxyphenyl)-2-methyl-5-oxo-1,4,6,7,8-pentahydroquinoline-3-carboxylate] | – | – | 56.8% | 69.7%
CC1=C(C(=O)Nc2ccccc2)C(c2cccs2)C(C#N)=C(SCC(=O)NC2CCC2)N1 (stereo not drawn) [RI_24] | 44.1 % of control | 80.8 % of control | – | –
